Laboratory results as given in ChEMBL document CHEMBL3046400, “Variation in the laboratory susceptibility of turf-infesting white grubs (Coleoptera: Scarabaeidae) to biological, biorational and chemical control products” (2010).

Columns and labels:
Type in all cases: functional
[1] = test system: Maladera castanea; test: Insecticidal activity against Maladera castanea assessed as mortality after 10 days; set-up: concentration or dose not given beside the values
[2] = test system: Anomala orientalis; test: Insecticidal activity against Anomala orientalis assessed as mortality after 30 days; set-up: concentration or dose not given beside the values
[3] = test system: Maladera castanea; test: Insecticidal activity against Maladera castanea assessed as mortality after 20 days; set-up: concentration or dose not given beside the values
[4] = test system: Popillia japonica; test: Insecticidal activity against Popillia japonica assessed as mortality after 20 days
[5] = test system: Anomala orientalis; test: Insecticidal activity against Anomala orientalis assessed as mortality after 10 days; set-up: concentration or dose not given beside the values
[6] = test system: Maladera castanea; test: Insecticidal activity against Maladera castanea assessed as mortality after 30 days; set-up: concentration or dose not given beside the values
[7] = test system: Amphimallon majale; test: Insecticidal activity against Amphimallon majalis (European chafer) assessed as mortality after 20 days
[8] = test system: Amphimallon majale; test: Insecticidal activity against Amphimallon majalis (European chafer) assessed as mortality after 10 days
[9] = test system: Popillia japonica; test: Insecticidal activity against Popillia japonica assessed as mortality after 10 days
[10] = test system: Amphimallon majale; test: Insecticidal activity against Amphimallon majalis (European chafer) assessed as mortality after 30 days
[11] = test system: Popillia japonica; test: Insecticidal activity against Popillia japonica assessed as mortality after 30 days
[12] = test system: Anomala orientalis; test: Insecticidal activity against Anomala orientalis assessed as mortality after 20 days; set-up: concentration or dose not given beside the values

Row | SMILES | Activity [1] [%] | Activity [2] [%] | Activity [3] [%] | Activity [4] [%] | Activity [5] [%] | Activity [6] [%] | Activity [7] [%] | Activity [8] [%] | Activity [9] [%] | Activity [10] [%] | Activity [11] [%] | Activity [12] [%]
1 | CC[C@H]1CCC[C@H](O[C@H]2CC[C@H](N(C)C)[C@@H](C)O2)[C@@H](C)C(=O)C2=C[C@@H]3[C@@H](C=C(C)[C@@H]4C[C@@H](O[C@@H]5O[C@@H](C)[C@H](OC)[C@@H](OC)[C@H]5OC)C[C@@H]34)[C@@H]2CC(=O)O1.CC[C@H]1CCC[C@H](O[C@H]2CC[C@H](N(C)C)[C@@H](C)O2)[C@@H](C)C(=O)C2=C[C@@H]3[C@@H](C=C[C@@H]4C[C@@H](O[C@@H]5O[C@@H](C)[C@H](OC)[C@@H](OC)[C@H]5OC)C[C@@H]34)[C@@H]2CC(=O)O1 | 6.6 | 59 | 20.6 | 33.5 | 3.2 | 79.6 | 11.8 | 17.1 | 7.3 | 26.5 | 58.9 | 31.4
2 | C/C=C(\C)C(=O)O[C@H]1C[C@@H](OC(C)=O)[C@@]2(C(=O)OC)CO[C@H]3[C@@H](O)[C@@](C)([C@]45O[C@@]4(C)[C@@H]4C[C@H]5O[C@@H]5OC=C[C@@]54O)[C@H]4[C@]1(CO[C@]4(O)C(=O)OC)[C@@H]32 [AZADIRACHTIN A] |  |  |  | 64.1 |  |  | 1.1 | 4 | 74.3 | 15.8 | 87.2 | 
3 | Cc1c(COC(=O)[C@@H]2[C@H](/C=C(\Cl)C(F)(F)F)C2(C)C)cccc1-c1ccccc1 [BIFENTHRIN] |  |  |  | 59.3 |  |  | 0 | 0 | 36.9 | 0 | 86.7 | 
4 | CCOP(=S)(OCC)Oc1nc(Cl)c(Cl)cc1Cl [CHLORPYRIFOS] | 65.5 | 98.6 | 89.6 | 84.4 | 87.9 | 92.4 | 89 | 43 | 62.7 | 100 | 100 | 94.8
5 | CN/C(=N\[N+](=O)[O-])NCc1cnc(Cl)s1 [CLOTHIANIDINE] | 39.8 | 98.6 | 75.7 | 22.9 | 56 | 100 | 22.6 | 19.8 | 4 | 44.3 | 32.8 | 89.3
6 | CN/C(=N/CC1CCOC1)N[N+](=O)[O-] (stereo not given) [DINOTEFURAN] |  |  |  | 69.3 |  |  | 2.2 | 0 | 54.4 | 8.9 | 86.2 | 
7 | O=[N+]([O-])/N=C1\NCCN1Cc1ccc(Cl)nc1 [IMIDACLOPRID] | 9.2 | 68.3 | 12.2 | 22.6 | 9.7 | 38.8 | 18.3 | 13 | 9.1 | 34.2 | 41.7 | 30.1
8 | CN1COCN(Cc2cnc(Cl)s2)/C1=N\[N+](=O)[O-] [THIAMETHOXAM] | 28.2 | 78.7 | 39.1 | 74.9 | 27 | 72.8 | 16.4 | 13.1 | 48.1 | 35.1 | 91 | 57.5
9 | COP(=O)(OC)C(O)C(Cl)(Cl)Cl (stereo not given) [TRICHLORFON] | 70.3 | 96 | 97.7 | 92.6 | 95.6 | 100 | 2.6 | 6 | 71.3 | 7.4 | 94.8 | 95.1
